Experimental data from PubChem BioAssay AID1259411 (Chemical Carcinogenesis Research Information System (CCRIS), 2018).
Active and inactive are the calls of the source. The rule behind the calls is not given here.

Test system: rodent carcinogenicity bioassays, tumor incidence
Experiment: CCRIS carcinogenicity studies
Method in brief: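 NCI-built, expert-reviewed records of carcinogenicity and related test outcomes (mutagenicity, tumor promotion/inhibition) compiled from published and report sources, historical span 1985-2011, not updated.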

COc1cc2c(c3oc4cccc(O)c4c(=O)c13)[C@@H]1C=CO[C@@H]1O2
carcinogen call (Species: MOUSE, Route: ORAL, Tumor Site: Type of Lesion: LUNG): active; positive | carcinogen call (Species: MOUSE, Strain/Sex: DBF1/FEMALE, Route: ORAL, Dose: 0, 30, 120 PPM IN DIET FOR 55 OR 51 WK, STUDY DURATION: 73 WK, Dose: 0, 30, 120 PPM IN DIET FOR 55 OR 51 WK, STUDY DURATION: 73 WK, Tumor Site: Type of Lesion: LIVER: HEMANGIOENDOTHELIOMA, ANGIOSARCOMA, LUNG: ADENOMA, INTEGUMENTARY SYSTEM (SUBCUTANEOUS TISSUE): ANGIOSARCOMA, Tumor Site: Type of Lesion: LIVER: HEMANGIOENDOTHELIOMA, ANGIOSARCOMA, LUNG: ADENOMA, INTEGUMENTARY SYSTEM (SUBCUTANEOUS TISSUE): ANGIOSARCOMA): active; positive | carcinogen call (Species: RAT, Route: DERMAL, Tumor Site: Type of Lesion: INTEGUMENTARY SYSTEM (SKIN)): active; positive | carcinogen call (Species: RAT, Route: ORAL, Tumor Site: Type of Lesion: LIVER): active; positive | carcinogen call (Species: RAT, Route: SUBCUTANEOUS, Tumor Site: Type of Lesion: INJECTION SITE): active; positive

C[C@@H]1CCC[C@H](C)N1CCC[C@@](O)(c1ccccc1)c1ccccn1
carcinogen call (Species: MOUSE, Strain/Sex: B6C3F1/FEMALE, Route: ORAL, Dose: 0, 10, 25, 50 MG/KG/D IN DIET FOR 104 WK (STUDY DURATION: 104 WK), Dose: 0, 10, 25, 50 MG/KG/D IN DIET FOR 104 WK (STUDY DURATION: 104 WK)): inactive; negative | carcinogen call (Species: MOUSE, Strain/Sex: B6C3F1/MALE, Route: ORAL, Dose: 0, 10, 25, 50 MG/KG/D IN DIET FOR 104 WK (STUDY DURATION: 104 WK), Dose: 0, 10, 25, 50 MG/KG/D IN DIET FOR 104 WK (STUDY DURATION: 104 WK)): inactive; negative | carcinogen call (Species: RAT, Strain/Sex: WISTAR/FEMALE, Route: ORAL, Dose: 0, 10, 25, 50 MG/KG/D IN DIET FOR 104 WK (STUDY DURATION: 104 WK), Dose: 0, 10, 25, 50 MG/KG/D IN DIET FOR 104 WK (STUDY DURATION: 104 WK)): inactive; negative | carcinogen call (Species: RAT, Strain/Sex: WISTAR/MALE, Route: ORAL, Dose: 0, 10, 25, 50 MG/KG/D IN DIET FOR 104 WK (STUDY DURATION: 104 WK), Dose: 0, 10, 25, 50 MG/KG/D IN DIET FOR 104 WK (STUDY DURATION: 104 WK)): inactive; negative

O=NN1CCC(=O)CC1
carcinogen call (Species: RAT, Strain/Sex: F344/FEMALE, Route: ORAL, Dose: 0, 80 ML OF SOLUTION OF 115 MG/L IN NEUTRAL DEIONIZED DRINKING WATER 5 D/WK FOR 30 WK (STUDY DURATION: 60 WK), Tumor Site: Type of Lesion: NASAL CAVITY: ESTHESIONEUROEPITHELIOMA, FORESTOMACH: TUMOR, ESOPHAGUS: TUMOR, TONGUE: TUMOR, LIVER: HEPATOCELLULAR CARCI, Tumor Site: Type of Lesion: NASAL CAVITY: ESTHESIONEUROEPITHELIOMA, FORESTOMACH: TUMOR, ESOPHAGUS: TUMOR, TONGUE: TUMOR, LIVER: HEPATOCELLULAR CARCI): active; positive

Cc1cccc2cccnc12
carcinogen call (Species: MOUSE, Strain/Sex: CD-1/FEMALE, Route: INTRAPERITONEAL, Dose: 0, 0.25, 0.5, 1.0 UMOL IN DMSO TO NEWBORN MICE ON DAYS 1, 8 AND 15 OF LIFE RESPECTIVELY (TOTAL DOSE: 1.75 UMOL) (STUDY D, Dose: 0, 0.25, 0.5, 1.0 UMOL IN DMSO TO NEWBORN MICE ON DAYS 1, 8 AND 15 OF LIFE RESPECTIVELY (TOTAL DOSE: 1.75 UMOL) (STUDY D): inactive; negative | carcinogen call (Species: MOUSE, Strain/Sex: CD-1/MALE, Route: INTRAPERITONEAL, Dose: 0, 0.25, 0.5, 1.0 UMOL IN DMSO TO NEWBORN MICE ON DAYS 1, 8 AND 15 OF LIFE RESPECTIVELY (TOTAL DOSE: 1.75 UMOL) (STUDY D, Dose: 0, 0.25, 0.5, 1.0 UMOL IN DMSO TO NEWBORN MICE ON DAYS 1, 8 AND 15 OF LIFE RESPECTIVELY (TOTAL DOSE: 1.75 UMOL) (STUDY D): inactive; negative | carcinogen call (Species: RAT, Strain/Sex: F344/MALE,FEMALE, Route: ORAL, Dose: 0.05% IN DIET FOR 2 YR): inactive; negative | carcinogen call (Species: RAT, Strain/Sex: SPRAGUE-DAWLEY/MALE, Route: SUBCUTANEOUS, Dose: 0, 200 UMOL/KG IN DMSO INTO SUPRASCAPULAR AREA ON DAY 1 OF LIFE FOLLOWED BY 0, 100 UMOL 1/WK AT WK 2-7 THEN 0, 200 UMOL/, Dose: 0, 200 UMOL/KG IN DMSO INTO SUPRASCAPULAR AREA ON DAY 1 OF LIFE FOLLOWED BY 0, 100 UMOL 1/WK AT WK 2-7 THEN 0, 200 UMOL/): inactive; negative | carcinogen call (Species: SPRAGUE-DAWLEY/MALE, Strain/Sex: SPRAGUE-DAWLEY/FEMALE, Route: SUBCUTANEOUS, Dose: 0, 200 UMOL/KG IN DMSO INTO SUPRASCAPULAR AREA ON DAY 1 OF LIFE FOLLOWED BY 0, 100 UMOL 1/WK AT WK 2-7 THEN 0, 200 UMOL/, Dose: 0, 200 UMOL/KG IN DMSO INTO SUPRASCAPULAR AREA ON DAY 1 OF LIFE FOLLOWED BY 0, 100 UMOL 1/WK AT WK 2-7 THEN 0, 200 UMOL/): inactive; negative

Cc1ccc2c(c1[N+](=O)[O-])C(=O)c1ccccc1C2=O
carcinogen call (Species: MOUSE, Strain/Sex: B6C3F1/FEMALE, Route: ORAL, Dose: 0, 0.03, 0.06% IN DIET, Dose: 0, 0.03, 0.06% IN DIET, Tumor Site: Type of Lesion: LIVER: HEMANGIOSARCOMA): active; positive | carcinogen call (Species: MOUSE, Strain/Sex: B6C3F1/MALE, Route: ORAL, Dose: 0, 0.03, 0.06% IN DIET, Dose: 0, 0.03, 0.06% IN DIET, Tumor Site: Type of Lesion: LIVER: HEMANGIOSARCOMA): active; positive | carcinogen call (Species: RAT, Strain/Sex: F344/MALE, Route: ORAL, Dose: 0, 0.12, 0.06% IN DIET, Dose: 0, 0.12, 0.06% IN DIET, Tumor Site: Type of Lesion: LIVER: HEPATOCELLULAR CARCINOMA OR NEOPLASTIC NODULE, INTEGUMENTARY SYSTEM (SUBCUTANEOUS TISSUE): FIBROMA): active; positive

O=NN(CCO)CCO
carcinogen call (Species: HAMSTER, Route: SUBCUTANEOUS, Tumor Site: Type of Lesion: LIVER, INJECTION SITE, NASAL CAVITY, TRACHEA, Tumor Site: Type of Lesion: LIVER, INJECTION SITE, NASAL CAVITY, TRACHEA): active; positive | carcinogen call (Species: HAMSTER, Strain/Sex: SYRIAN/FEMALE, Route: SUBCUTANEOUS, Dose: 0, 250, 500, 1000 MG/KG IN SALINE 1/WK FOR DURATION OF STUDY (STUDY DURATION: 41-59 WK), Dose: 0, 250, 500, 1000 MG/KG IN SALINE 1/WK FOR DURATION OF STUDY (STUDY DURATION: 41-59 WK), Tumor Site: Type of Lesion: NASAL CAVITY: ADENOCARCINOMA, TRACHEA: PAPILLARY POLYP, LARYNX: PAPILLARY POLYP, Tumor Site: Type of Lesion: NASAL CAVITY: ADENOCARCINOMA, TRACHEA: PAPILLARY POLYP, LARYNX: PAPILLARY POLYP): active; positive | carcinogen call (Species: HAMSTER, Strain/Sex: SYRIAN/MALE, Route: SUBCUTANEOUS, Dose: 0, 250, 500, 1000 MG/KG IN SALINE 1/WK FOR DURATION OF STUDY (STUDY DURATION: 45-54 WK), Dose: 0, 250, 500, 1000 MG/KG IN SALINE 1/WK FOR DURATION OF STUDY (STUDY DURATION: 45-54 WK), Tumor Site: Type of Lesion: NASAL CAVITY: ADENOCARCINOMA, TRACHEA: PAPILLARY POLYP, LARYNX: PAPILLARY POLYP, Tumor Site: Type of Lesion: NASAL CAVITY: ADENOCARCINOMA, TRACHEA: PAPILLARY POLYP, LARYNX: PAPILLARY POLYP): active; positive | carcinogen call (Species: MOUSE, Strain/Sex: STRAIN-A/FEMALE, Route: ORAL, Dose: 0, 0.2 UMOL/ML IN DRINKING WATER FOR 10 WK (TOTAL DOSE: 0, 55 UMOL) FOLLOWED BY TAP WATER FOR 20 WK (STUDY DURATION: 30, Tumor Site: Type of Lesion: LUNG: TUMORS): active; positive | carcinogen call (Species: RAT, Route: ORAL, Tumor Site: Type of Lesion: KIDNEY, LIVER): active; positive | carcinogen call (Species: RAT, Strain/Sex: F344/FEMALE, Route: ORAL, Dose: 0, 150 MG/L IN DRINKING WATER 5 D/WK FOR 50 WK (TOTAL DOSE: 0; 5.6 MMOL) (STUDY DURATION: 124 WK), Dose: 0, 150 MG/L IN DRINKING WATER 5 D/WK FOR 50 WK (TOTAL DOSE: 0; 5.6 MMOL) (STUDY DURATION: 124 WK), Tumor Site: Type of Lesion: LIVER: HEPATOCELLULAR TUMOR): active; positive
